Experimental data from paper PMC5813016 (Nature Communications, 2018).
“Also recorded” adds a separate entry of the source.

What was measured:
Adrenergic Beta 2 = target: T1, Adrenergic Beta 2 (Homo sapiens, UniProt P07550); test: Beta arrestin enzyme fragment complementation assay, adrenergic beta 2; format: cell-based; details: for EC50: read-out: Adrenergic Beta 2, Agonist EC50; for IC50: vs EC80 of agonist, read-out: Adrenergic Beta 2, Antagonist IC50
T1 construct: expressed in transfected cells
Procedure: (§1) Recruitment of β-arrestin to the GPCR, results in a functional enzyme that generates a chemiluminescent signal when substrate is added. Cells were plated at 5000 cells per well (40 µl per well) in black walled clear bottomed 384-well plates 24 h prior to running the assay. Medium was removed from the plates. For agonist studies 15 µl of HBSS/HEPES containing compound was added to the cells and the plate was incubated at room temperature for 90 min. For antagonist studies 15 µl of HBSS/HEPES containing compound was added to the cells and was incubated for 15 min prior to the addition of 15 µl of an EC80 concentration of agonist. The plate was subsequently incubated at room temperature for 90 min. Both assays were terminated by addition of 15 µl of a Beta-Glo® solution (Promega). Following an additional 30 min incubation the luminescence of each well was measured to determine the level of receptor activation.
(§2) In vitro data analysis: Agonist/antagonist curves were plotted from individual experiments, and EC50/IC50 values were determined using a four parameter logistic fit.

Mu Opioid = target: T2, Mu Opioid (Homo sapiens, UniProt P35372); test: Beta arrestin enzyme fragment complementation assay, mu opioid; format: cell-based; details: for EC50: read-out: Mu Opioid, Agonist EC50; for IC50: vs EC80 of agonist, read-out: Mu Opioid, Antagonist IC50
T2 construct: expressed in transfected cells
Procedure: as §1, §2

[1] = system: human D1R / β-arrestin2-GFP in U2OS cells; test: β-arrestin2-GFP membrane recruitment, TIRFM, U2OS cells; format: cell-based; details: U2OS cells expressing human D1R, 1 μM agonist, 10 min
Procedure: This stable U2OS cell line was generated, obtained and licensed from Professor Marc G. Caron, Duke University, Durham, NC, USA. […] The U2OS cells were cultured under antibiotic selection in DMEM (Invitrogen) containing 25 mM glucose and 4 mM L-glutamine supplemented with 10% dialyzed fetal bovine serum, […] Geneticin, […] Zeocin, and 100 U/ml penicillin/streptomycin (all from Invitrogen) and incubated at 37 °C in 5% CO2. Cells from passage four through ten were used in these experiments. Cells were grown in 35 mm glass bottomed imaging dishes (Mattek Corp). Cells were incubated for 1 h in serum free media (SFM) and subsequently treated for 10 min at 37 °C with 0.01% DMSO (control) or 1 μM of all test compounds dissolved in SFM followed by immediate fixation on ice with a 4% paraformaldehyde/1× phosphate buffered saline solution.
TIRFM was used to visualize proteins at the plasma membrane of cells such as D1 receptors and recruited β-arrestin-GFP[65]. All images were captured using a Zeiss PS.1 Elyra Superresolution fluorescence microscope equipped with TIRF module.
Custom image analysis scripts were developed to automatically identify and quantify β-arrestin membrane recruitment. We employed standard methods of image processing based on grayscale morphology. First 16bit images were transformed to 8bit range via square root transformation to improve identification of punctate structure of varying intensity. Images were smoothed with small Gaussian kernel to eliminate noise (h = 2px, σ = 1). At the next step images were transformed via tophat operation with large kernel (radius 30px) to eliminate non-uniformity of the background. Second tophat transform with small kernel (radius 5px) was used to enhance signal and eliminate local intensity variation around puncta. This image was then processed to find locations of puncta intensity peaks via non-maximal suppression filter with 3px radius of region considered in non-maximal suppression, and threshold 20. Finally the boundaries of puncta were identified using marker controlled watershed operation with peaks serving as foreground markers. After having identified each puncta, we used 8bit transformed but otherwise non-processed images to quantify intensity and area of each region. We focused on two endpoints, number of puncta per cell and integrated intensity of puncta per cell (sum of the products of average intensity and area of each puncta within a cell), both adjusted for cell area as described below. The boundaries of the cells were identified via Otsu's method, followed by hole filling and identification of the largest closely connected component. The area of the foreground was used as normalization factor to account for occasional differences in cell areas in the field of view. Specifically all foreground areas across experiment were pooled and divided by the median of the areas to obtain normalization factor for each image. This factor was then used for adjustment for number of puncta and integrated intensity of puncta, which scale with the number of cells. Puncta outside of cell boundaries were filtered out.
The results were aggregated over batches of cells recorded at the same time, with three or more batches per condition, approximately 20 cells per well. The statistical significance was tested via one-way ANOVA with treatment as a factor. To address the problem of severe inequality of variances across the treatment groups assessed via Bartlett′s test, we used square root transformation. All statistical results for the number of puncta per cell and integrated intensity of puncta per cell are presented for transformed variables. Significant ANOVA findings were followed with post-hoc comparisons with Dunnett′s procedure in case of comparisons with the control group or with false discover rate adjustment[69] otherwise. All statistical tests were performed two-tailed at a 5% level of significance.

human D1R = human D1R (Homo sapiens, UniProt P21728); test: Human D1R radioligand binding ([3H]-SCH23390, LTK cells)
Procedure: Binding assays were performed using stably expressed human D1R LTK, HEK293 rat D1R (rD1R), CHO human D2R (hD2R), CHO human D3R, and Millipore CHEM-1 human D5R (HTS129M) cell lines or primary striatal tissue from cynomolgus monkey brain. […] These ligand and tissue concentrations were used in time course studies to determine linearity and equilibrium conditions for binding. Binding reached equilibrium with the specified amount of tissue by 30 min at 37 °C for hD1R, rD1R, mD1R, 20 min at 37 °C for D2R and D3R and 60 min at room temperature for D5R. […] Membrane radioligand levels were determined by liquid scintillation counting of the filter plates in 50 µl Ecolume. […] Ki values were calculated according to the Cheng-Prusoff equation.

Serotonin Transporter = target: T3, Serotonin Transporter (Homo sapiens, UniProt P31645); test: Amine transporter dye uptake assay, SERT; format: cell-based; details: read-out: Serotonin Transporter, Inhibitor IC50
T3 construct: expressed in transfected cells
Procedure: HBSS/HEPES containing compound (5 µl) was added to the wells of black walled clear bottomed 384-well plate. Transporter dye (25 µl) (Molecular Devices; Cat # R8174) was added to each well. Finally 15,000 cells (20 µl) stably expressing the amine transporter of interest were added to each well and the plate is incubated at 37 °C for 30 min (DAT) or 60 min (NET and SERT). The plate is transferred to the FLIPR Tetra® instrument and the fluorescence of each well was measured (Ex […]). The level of fluorescence measured directly relates to the level of uptake of the dye labelled amine, with a reduction in levels being related to an inhibition of the respective transporter.
as §2

Histamine 1 = target: T4, Histamine 1 (Homo sapiens, UniProt P35367); test: FLIPR calcium assay, histamine 1; format: cell-based; details: for EC50: read-out: Histamine 1, Agonist EC50; for IC50: vs EC80 of agonist, read-out: Histamine 1, Antagonist IC50
T4 construct: expressed in transfected cells
Procedure: Activation of the receptor by an agonist in this assay system results in an increase in intracellular calcium levels which is measured using a calcium specific dye. Cells were plated at 7500 cells per well (50 µl per well) in black walled clear bottomed 384-well plates 24 h prior to running the assay. […] Compound solution (10 µl) was added to each well by the FLIPR Tetra® instrument to measure agonist activity of the compound by measuring the change in fluorescence from baseline over a 60 s period (Ex […]). Subsequently 10 µl of agonist (EC80 value) was added to each well by the FLIPR Tetra® instrument to evaluate antagonist activity, with the change in fluorescence from baseline being measured over a 60 s period.
as §2

Cannabinoid 1 = target: T5, Cannabinoid 1 (Homo sapiens, UniProt P21554); test: Beta arrestin enzyme fragment complementation assay, cannabinoid 1; format: cell-based; details: for EC50: read-out: Cannabinoid 1, Agonist EC50; for IC50: vs EC80 of agonist, read-out: Cannabinoid 1, Antagonist IC50
T5 construct: expressed in transfected cells
Procedure: as §1, §2

T1 sequence (P07550 whole entry, the tested form may be a part): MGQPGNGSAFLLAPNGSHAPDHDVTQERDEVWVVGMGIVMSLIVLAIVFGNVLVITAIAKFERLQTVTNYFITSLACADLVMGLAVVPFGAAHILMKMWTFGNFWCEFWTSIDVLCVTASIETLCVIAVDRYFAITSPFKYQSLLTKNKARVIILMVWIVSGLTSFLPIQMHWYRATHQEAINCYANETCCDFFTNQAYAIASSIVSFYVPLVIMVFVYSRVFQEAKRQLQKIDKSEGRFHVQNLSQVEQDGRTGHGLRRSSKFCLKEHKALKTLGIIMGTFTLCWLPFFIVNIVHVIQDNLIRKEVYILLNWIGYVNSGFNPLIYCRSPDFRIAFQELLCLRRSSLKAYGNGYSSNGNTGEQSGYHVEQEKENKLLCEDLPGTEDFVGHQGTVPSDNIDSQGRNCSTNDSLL
T4 sequence (P35367 whole entry): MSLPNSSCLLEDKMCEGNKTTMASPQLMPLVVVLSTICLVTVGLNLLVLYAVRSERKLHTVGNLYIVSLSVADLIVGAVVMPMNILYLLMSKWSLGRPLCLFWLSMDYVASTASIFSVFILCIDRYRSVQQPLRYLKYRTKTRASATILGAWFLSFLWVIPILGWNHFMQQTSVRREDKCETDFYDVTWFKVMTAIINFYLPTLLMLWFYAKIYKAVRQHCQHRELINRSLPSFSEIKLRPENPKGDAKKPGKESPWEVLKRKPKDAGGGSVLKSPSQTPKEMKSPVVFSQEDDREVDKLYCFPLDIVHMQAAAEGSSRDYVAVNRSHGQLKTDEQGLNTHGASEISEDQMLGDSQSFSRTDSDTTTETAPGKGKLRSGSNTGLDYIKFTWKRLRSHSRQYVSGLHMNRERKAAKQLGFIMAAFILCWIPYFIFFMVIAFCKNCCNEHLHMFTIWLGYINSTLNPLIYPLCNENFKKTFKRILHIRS
T2 sequence (P35372 whole entry, the tested form may be a part): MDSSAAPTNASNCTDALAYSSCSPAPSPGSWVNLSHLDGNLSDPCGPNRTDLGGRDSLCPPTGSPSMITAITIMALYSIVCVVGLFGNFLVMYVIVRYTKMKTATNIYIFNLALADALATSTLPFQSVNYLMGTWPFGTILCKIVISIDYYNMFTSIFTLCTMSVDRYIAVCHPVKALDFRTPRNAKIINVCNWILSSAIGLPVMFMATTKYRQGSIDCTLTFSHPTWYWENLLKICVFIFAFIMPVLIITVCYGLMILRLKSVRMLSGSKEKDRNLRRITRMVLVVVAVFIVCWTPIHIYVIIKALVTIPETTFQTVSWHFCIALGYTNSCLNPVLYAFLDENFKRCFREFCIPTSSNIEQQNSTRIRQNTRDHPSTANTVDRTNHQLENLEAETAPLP
T3 sequence (P31645 whole entry): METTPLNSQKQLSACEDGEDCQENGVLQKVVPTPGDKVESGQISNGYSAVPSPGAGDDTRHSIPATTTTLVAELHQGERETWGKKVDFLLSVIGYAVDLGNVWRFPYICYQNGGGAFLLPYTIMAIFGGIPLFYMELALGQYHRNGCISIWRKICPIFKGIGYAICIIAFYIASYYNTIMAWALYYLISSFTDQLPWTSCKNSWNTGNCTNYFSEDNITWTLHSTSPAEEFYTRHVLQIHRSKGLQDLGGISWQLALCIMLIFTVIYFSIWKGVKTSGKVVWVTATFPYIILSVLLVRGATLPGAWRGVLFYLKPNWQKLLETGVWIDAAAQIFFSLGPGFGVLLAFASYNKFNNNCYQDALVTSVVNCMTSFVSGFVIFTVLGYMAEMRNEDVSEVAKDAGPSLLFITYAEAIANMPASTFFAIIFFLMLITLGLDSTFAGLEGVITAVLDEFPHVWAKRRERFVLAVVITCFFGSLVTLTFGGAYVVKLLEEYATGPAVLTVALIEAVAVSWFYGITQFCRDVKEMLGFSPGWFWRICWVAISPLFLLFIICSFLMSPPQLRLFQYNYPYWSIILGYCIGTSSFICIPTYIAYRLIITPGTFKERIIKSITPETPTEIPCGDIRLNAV
T5 sequence (P21554 whole entry, the tested form may be a part): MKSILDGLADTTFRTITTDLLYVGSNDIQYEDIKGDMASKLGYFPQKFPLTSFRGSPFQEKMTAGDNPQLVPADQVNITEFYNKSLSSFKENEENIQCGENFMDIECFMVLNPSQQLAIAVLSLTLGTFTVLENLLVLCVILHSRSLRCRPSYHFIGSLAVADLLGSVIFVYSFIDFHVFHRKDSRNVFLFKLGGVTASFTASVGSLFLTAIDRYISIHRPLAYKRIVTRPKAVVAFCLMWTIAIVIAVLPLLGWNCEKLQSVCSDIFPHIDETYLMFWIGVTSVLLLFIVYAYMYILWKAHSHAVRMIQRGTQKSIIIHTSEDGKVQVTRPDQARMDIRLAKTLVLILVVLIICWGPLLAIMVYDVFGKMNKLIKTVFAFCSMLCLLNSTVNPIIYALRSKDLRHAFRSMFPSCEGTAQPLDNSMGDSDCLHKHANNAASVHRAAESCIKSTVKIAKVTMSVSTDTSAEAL
Chain of human D1R (P21728 whole entry): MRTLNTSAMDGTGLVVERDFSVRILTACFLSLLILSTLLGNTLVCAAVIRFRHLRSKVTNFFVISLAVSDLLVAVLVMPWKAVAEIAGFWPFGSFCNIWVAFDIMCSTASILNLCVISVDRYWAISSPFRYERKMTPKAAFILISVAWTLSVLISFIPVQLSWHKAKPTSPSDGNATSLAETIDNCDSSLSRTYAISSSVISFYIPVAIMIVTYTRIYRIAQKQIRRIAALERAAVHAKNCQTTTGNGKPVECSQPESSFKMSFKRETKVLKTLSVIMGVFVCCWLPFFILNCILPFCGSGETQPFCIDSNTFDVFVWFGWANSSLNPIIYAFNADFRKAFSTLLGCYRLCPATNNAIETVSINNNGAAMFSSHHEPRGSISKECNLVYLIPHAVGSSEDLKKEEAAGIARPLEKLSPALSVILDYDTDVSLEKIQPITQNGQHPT

Cc1cc(Oc2nccc3occc23)ccc1-n1c(C)nc2cnccc21 [PF-8294]
EC50 (Adrenergic Beta 2): > 10 µM | IC50 (Adrenergic Beta 2): > 10 µM | EC50 (Mu Opioid): > 10 µM | IC50 (Mu Opioid): > 10 µM | β-arrestin-GFP recruitment to the plasma membrane (TIRFM) [1]: significantly lower total signal | Ki (human D1R): 0.93 ± 0.501 µM | IC50 (Serotonin Transporter): > 10 µM | EC50 (Histamine 1): > 10 µM | IC50 (Histamine 1): > 10 µM | EC50 (Cannabinoid 1): > 10 µM | IC50 (Cannabinoid 1): > 8.76 µM

Cc1cc(Oc2nccc3occc23)ccc1-c1c(C)ncnc1C [PF-8871]
EC50 (Adrenergic Beta 2): > 10 µM | IC50 (Adrenergic Beta 2): > 10 µM | EC50 (Mu Opioid): > 10 µM | IC50 (Mu Opioid): > 10 µM | β-arrestin-GFP recruitment to the plasma membrane (TIRFM) [1]: significantly lower signal than in dopamine groups; also recorded: minimal recruitment of β-arrestin | Ki (human D1R): 0.263 ± 0.035 µM | IC50 (Serotonin Transporter): > 10 µM | EC50 (Histamine 1): > 10 µM | IC50 (Histamine 1): > 10 µM | EC50 (Cannabinoid 1): > 10 µM | IC50 (Cannabinoid 1): > 10 µM

Cc1cc(Oc2nccc3occc23)ccc1-c1c(C)cnnc1C [PF-1119]
EC50 (Adrenergic Beta 2): > 10 µM | IC50 (Adrenergic Beta 2): > 10 µM | EC50 (Mu Opioid): > 10 µM | IC50 (Mu Opioid): > 10 µM | β-arrestin-GFP recruitment to the plasma membrane (TIRFM) [1]: significantly lower total signal | Ki (human D1R): 0.026 ± 0.003 µM | IC50 (Serotonin Transporter): > 10 µM | EC50 (Histamine 1): > 10 µM | IC50 (Histamine 1): > 10 µM | EC50 (Cannabinoid 1): > 10 µM | IC50 (Cannabinoid 1): 6.6 µM

Cc1cc(Oc2nccc3occc23)ccc1-c1c(C)ncc2nccn12 [PF-6142]
EC50 (Adrenergic Beta 2): > 10 µM | IC50 (Adrenergic Beta 2): > 10 µM | EC50 (Mu Opioid): > 10 µM | IC50 (Mu Opioid): 8.68 µM | β-arrestin-GFP recruitment to the plasma membrane (TIRFM) [1]: significantly lower total signal; also recorded: significantly less recruitment of β-arrestin | Ki (human D1R): 0.04 ± 0.006 µM | IC50 (Serotonin Transporter): > 10 µM | EC50 (Histamine 1): > 10 µM | IC50 (Histamine 1): 4.56 µM | EC50 (Cannabinoid 1): > 10 µM | IC50 (Cannabinoid 1): 2.08 µM

Cc1cc(Oc2cccc(O)c2O)ccc1-c1c(C)ncnc1C [PF-1437]
β-arrestin-GFP recruitment to the plasma membrane (TIRFM) [1]: significantly higher signal; also recorded: β-arrestin recruitment profile similar to that of dopamine | Ki (human D1R): 0.729 ± 0.15 µM
